The subject of assay [1] is brain p-synuclein (p-Ser129). The experiment in a line: in vivo inhibition of phosphorylation of synuclein in wild-type FVB mice, brain western blot. The following applies: IV tail vein 50 mg/kg. On the set-up: species or system mouse. As to the method: The examples above describe the identification and in vitro validation of polo-like kinase 2 (PLK2) as an α-synuclein Ser 129-specific kinase. This example describes the ability of a kinase inhibitor (BI 2561) to decrease phosphorylation of α-synuclein in vivo. Wild-type FVB mice were treated by IV tail vein with 50 mg/kg of the PLK-specific inhibitor. Total α-synuclein and p-synuclein levels in brain (p-Ser129) were analyzed by western blot.
(In general: A western blot detects proteins with antibodies after separation by electrophoresis.)

Assay [2] deals with synuclein phosphorylation by endogenous kinase. The experiment in a line: kinase inhibitor treatment of mouse cortical cultures (MCC), total and phospho-synuclein ELISA. Type of assay: cell-based. As to the method: Mouse cortical cultures from fetal (i) Swiss-Webster, (ii) C56BL/6 WT and (iii) C56BL/6 E46K-Synuclein Trangenic mice were prepared and maintained in B27/DMEM/1% Penicillin-Streptomycin at 37° C./10% CO2 for three to fourteen days and then treated with kinase inhibitors.
Cultures were exposed to inhibitors for two hours in B27/DMEM/1% Penicillin-Streptomycin. Cells were immediately washed in 100 μL of PBS plus Mg^2+ and Ca^2+, and harvested in ice-cold CEB minus EGTA plus protease inhibitors, frozen on dry ice and stored at −80° C. until processed. A Micro BCA (Pierce) total protein assay, and total synuclein and phospho-synuclein ELISAs were performed on each plate of treated cells using standard methods.
In general terms: An ELISA detects its analyte on a solid surface through an enzyme-linked reagent.

Assay [3] has the same test system. Put plainly: kinase inhibitor treatment of rat ventral mesencephalon (RVM) cultures transduced with E46K-synuclein. In kind it is cell-based. As to the method: (§1) Rat Ventral Mesencephalon (RVM) cultures were prepared from E15 Wistar rats. The RVM cultures were cultured for 2 days and transduced with 0.75 MOI E46K-Synuclein lentivirus alone, or 0.75 MOI E46K-Synuclein lentivirus plus 0.75 MOI ca-PLK2 lentivirus. […] Transduced cultures were maintained in neuronal media with B27/1% FBS and 37° C./5% CO2 until treated with inhibitors. On DIV 17 (which corresponds to 15 days after viral transduction of the cultures) cells were treated with inhibitors for two hours. Cells were then harvested as detailed above in neuronal media with B27/1% FBS. A Micro BCA (Pierce) total protein assay, and total synuclein and phospho-synuclein ELISAs were performed on each plate of treated cells using standard methods.

The subject of assay [4] is synuclein phosphorylation by constitutively active PLK2 (caPLK2). The experiment in a line: kinase inhibitor treatment of RVM cultures transduced with E46K-synuclein plus ca-PLK2. The following applies: rat ventral mesencephalon cultures. Type of assay: cell-based. As to the method: as §1
Assay [5] relates to synuclein phosphorylation (serine-129). Put plainly: inhibition of synuclein phosphorylation across the cellular paradigms (primary neuronal cultures and 293 cells). Type of assay: cell-based, mouse, rat and human. The following applies: for EC50: Homo sapiens.
Assay [6] concerns the target T1, PLK2 (Homo sapiens, UniProt Q9NYY3). The experiment in a line: in vitro biochemical assay of PLK2-driven synuclein phosphorylation. As to the method: The reaction was incubated at 37° C. The activity was analyzed by autoradiography.
In vitro biochemical assays using each of the four PLK family members as the kinase to phosphorylate synuclein were conducted.

Assay [7] relates to endogenous kinase (synuclein phosphorylation). Put plainly: HEK-293 cells overexpressing synuclein with empty vector, inhibition of synuclein phosphorylation. In kind it is cell-based, human. The following applies: for rank order of potency, Endogenous Kinase (293): Table 19. As to the method: (§2) All vectors had the sequence coding for the protein of interest. Transfection was accomplished using Lipofectamine 2000 (Invitrogen, Carlsbad, Calif.) with 0.08 μg vector. Cells were washed and harvested 48 hours post-transfection. A Micro BCA (Pierce) total protein assay and total synuclein and phospho-synuclein ELISAs were performed on each plate of treated cells.

For assay [8], the target named is T1, PLK2. The experiment in a line: HEK-293 cells overexpressing synuclein and PLK2, inhibition of synuclein phosphorylation. Type of assay: cell-based. On the set-up: expressed in transfected cells; host or cells: HEK-293. As to the method: as §2
The next assay concerns the target T2, PLK3 (Homo sapiens, UniProt Q9H4B4).
T2 construct: expressed in transfected cells; host or cells: HEK-293
The experiment in a line: HEK-293 cells overexpressing synuclein and PLK3, inhibition of synuclein phosphorylation. In kind it is cell-based. As to the method:
as §2

The next assay addresses T3, PLK4 (Homo sapiens, UniProt O00444).
T3 sequence (O00444 1-970): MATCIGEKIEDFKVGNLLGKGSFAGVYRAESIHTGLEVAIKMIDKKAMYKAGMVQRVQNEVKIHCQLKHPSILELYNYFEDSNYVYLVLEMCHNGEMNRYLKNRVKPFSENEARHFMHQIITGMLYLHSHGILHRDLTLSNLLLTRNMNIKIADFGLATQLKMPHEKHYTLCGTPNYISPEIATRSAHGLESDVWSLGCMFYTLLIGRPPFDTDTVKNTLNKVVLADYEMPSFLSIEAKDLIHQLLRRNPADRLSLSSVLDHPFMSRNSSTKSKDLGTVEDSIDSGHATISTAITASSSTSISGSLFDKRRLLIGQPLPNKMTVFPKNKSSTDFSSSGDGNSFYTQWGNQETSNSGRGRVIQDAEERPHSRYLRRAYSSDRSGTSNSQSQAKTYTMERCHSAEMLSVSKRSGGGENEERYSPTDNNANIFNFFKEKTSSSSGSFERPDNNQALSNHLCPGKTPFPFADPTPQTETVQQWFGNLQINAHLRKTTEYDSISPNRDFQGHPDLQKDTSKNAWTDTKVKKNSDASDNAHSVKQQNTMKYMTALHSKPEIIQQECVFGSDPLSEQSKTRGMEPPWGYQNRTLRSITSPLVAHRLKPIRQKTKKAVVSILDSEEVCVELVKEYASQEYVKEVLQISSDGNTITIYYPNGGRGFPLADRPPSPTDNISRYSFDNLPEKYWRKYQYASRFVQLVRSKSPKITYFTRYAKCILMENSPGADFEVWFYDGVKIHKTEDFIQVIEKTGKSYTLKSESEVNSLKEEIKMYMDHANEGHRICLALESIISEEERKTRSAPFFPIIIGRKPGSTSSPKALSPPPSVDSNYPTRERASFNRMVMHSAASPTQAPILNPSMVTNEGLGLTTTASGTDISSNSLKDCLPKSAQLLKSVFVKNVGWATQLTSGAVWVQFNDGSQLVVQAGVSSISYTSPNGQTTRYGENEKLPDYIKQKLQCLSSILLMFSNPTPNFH
The experiment in a line: HEK-293 cells overexpressing synuclein and PLK4, inhibition of synuclein phosphorylation. Type of assay: cell-based. The following applies: HEK-293. As to the method: as §2

For assay [9], the system named is synuclein phosphorylation. The experiment in a line: overexpression of PLK family members with WT-synuclein in HEK-293 cells, phospho-synuclein ELISA. Type of assay: cell-based, human. As to the method:
HEK-293 naïve cells were transfected with an expression vector encoding PLK1, PLK2, PLK3, or PLK4 under the control of a CMV promoter, or empty vector, together with an expression vector encoding WT-synuclein. All vectors had the sequence coding for the protein of interest. Transfection was accomplished using Lipofectamine 2000 (Invitrogen, Carlsbad, Calif.) with 0.08 μg vector. Cells were washed and harvested 48 hours post-transfection. A Micro BCA (Pierce) total protein assay and total synuclein and phospho-synuclein ELISAs were performed on each plate of treated cells.

Setting [10] is: E46K-Synuclein transgenic mouse cortical cultures, read-out: EC50, E46K-Syn TG MCC.
The mark [11] stands for this setting: WT mouse cortical cultures, read-out: EC50, WT-MCC.
[12] abbreviates: PLK2-driven synuclein phosphorylation, read-out: IC50 in the in vitro biochemical assay.
Setting [13] is: in vitro PLK2-driven synuclein phosphorylation, read-out: IC50, Straight Biochemical.
The mark [14] stands for this setting: Homo sapiens, HEK293, 293 cells, Table 18, read-out: EC50, Endogenous Kinase (293).
[15] abbreviates: 293 cells, Table 18, read-out: EC50, Over-Expressed PLK2 (293).

Read-outs that look alike come from different tables or passages of the source.

In general, EC50 refers to the midpoint of the concentration-response curve. In general, IC50 refers to the midpoint of a concentration-inhibition curve.

T2 sequence (Q9H4B4 whole entry): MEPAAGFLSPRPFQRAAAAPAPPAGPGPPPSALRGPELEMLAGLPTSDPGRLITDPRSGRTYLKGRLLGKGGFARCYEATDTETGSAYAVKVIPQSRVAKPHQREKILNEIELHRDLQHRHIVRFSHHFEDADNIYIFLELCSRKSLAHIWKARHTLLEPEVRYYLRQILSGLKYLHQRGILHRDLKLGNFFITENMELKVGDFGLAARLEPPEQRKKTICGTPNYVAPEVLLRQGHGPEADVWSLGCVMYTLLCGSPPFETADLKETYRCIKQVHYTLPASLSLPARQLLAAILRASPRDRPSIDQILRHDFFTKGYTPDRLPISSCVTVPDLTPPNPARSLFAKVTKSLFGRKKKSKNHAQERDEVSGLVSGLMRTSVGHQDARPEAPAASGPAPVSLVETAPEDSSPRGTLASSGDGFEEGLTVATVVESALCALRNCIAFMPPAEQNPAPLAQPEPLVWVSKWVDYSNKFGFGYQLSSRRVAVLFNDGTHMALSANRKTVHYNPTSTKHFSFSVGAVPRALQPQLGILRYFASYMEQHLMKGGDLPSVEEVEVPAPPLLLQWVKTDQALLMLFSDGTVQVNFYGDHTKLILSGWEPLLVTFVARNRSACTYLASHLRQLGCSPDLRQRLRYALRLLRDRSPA
T1 sequence (Q9NYY3 whole entry): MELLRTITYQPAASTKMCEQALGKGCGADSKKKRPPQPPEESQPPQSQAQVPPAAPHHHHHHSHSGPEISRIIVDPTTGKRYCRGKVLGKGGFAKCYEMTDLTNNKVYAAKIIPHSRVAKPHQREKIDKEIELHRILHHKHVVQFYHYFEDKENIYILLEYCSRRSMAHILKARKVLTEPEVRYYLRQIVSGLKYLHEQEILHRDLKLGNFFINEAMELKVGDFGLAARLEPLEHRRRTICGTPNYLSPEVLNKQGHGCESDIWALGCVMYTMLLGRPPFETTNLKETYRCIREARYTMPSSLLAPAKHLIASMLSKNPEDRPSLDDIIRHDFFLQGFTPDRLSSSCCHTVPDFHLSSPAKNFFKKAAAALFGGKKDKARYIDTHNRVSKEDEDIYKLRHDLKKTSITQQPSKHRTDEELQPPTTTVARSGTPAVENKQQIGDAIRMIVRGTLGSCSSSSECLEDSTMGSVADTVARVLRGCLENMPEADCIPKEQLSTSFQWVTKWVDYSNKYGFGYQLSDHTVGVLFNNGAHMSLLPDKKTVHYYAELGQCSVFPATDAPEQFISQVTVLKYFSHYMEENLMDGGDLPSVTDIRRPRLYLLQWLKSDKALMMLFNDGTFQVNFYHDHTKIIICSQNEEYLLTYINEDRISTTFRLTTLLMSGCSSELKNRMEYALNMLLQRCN

With `CC[C@@H]1C(=O)N(C)c2cnc(Nc3ccc(C(=O)NC4CCN(C)CC4)cc3OC)nc2N1C1CCCC1` [BI 2561], the “total α-synuclein levels in brain, western blot” value in assay [1] is listed as “no effect”. Also, the “brain p-synuclein levels (p-Ser129), western blot” value in [1] (from 1 hour to 6 hours after treatment) is “clear decrease”.

As to `COC(=O)[C@@]1(O)C[C@H]2O[C@]1(C)n1c3ccccc3c3c4c(c5c6ccccc6n2c5c31)C(=O)NC4` [Compound K252A], the “rank order of potency, E46K-Syn TG MCC” value in assay [2] (E46K-Synuclein transgenic mouse cortical cultures) stood at 2. For the same molecule, the EC50 is 3.1 µM in [2] (setting [10]); 2.9 µM in assay [2] (Swiss-Webster mouse cortical cultures, read-out: EC50, Swiss-Webster MCC); 3 µM in assay [2] (setting [11]); 3.2 µM in [3]; 3.5 µM in assay [4]; 3 to 7 µM in assay [5] (HEK293, read-out: EC50 inhibition of synuclein phosphorylation, cellular paradigms). Further, the EC50 in assay [7] (setting [14]) turned out to be 3.6 µM; at PLK2 [8] (setting [15]), 7.1 µM. Moreover, the “rank order of potency, Swiss-Webster MCC” value in [2] (Swiss-Webster mouse cortical cultures) came out at 2. Further, the “rank order of potency, WT-MCC” value in [2] (WT mouse cortical cultures) was found to be 2. Besides, in assay [3], the “rank order of potency, RVM E46K-Synuclein” value stood at 3. Besides, the “rank order of potency, RVM E46K-Synuclein caPLK2” value in [4] stood at 2. Further, the “rank order of potency, Straight Biochemical” value at PLK2 [6] was 4. Besides, the IC50 on PLK2 [6] (setting [12]) and at PLK2 [6] (setting [13]) was greater than 10 µM in each case. Further, the “rank order of potency, Endogenous Kinase (293)” value in [7] (293 cells) is recorded as 2. Further, at PLK2 [8], the “rank order of potency, Over-Expressed PLK2 (293)” value is on record as 2.

For `NC(=O)c1sc2c([N+](=O)[O-])cc(C(F)(F)F)cc2[n+]1[O-]` [ELN-481080], the EC50 is roughly 100 µM in assay [3]; 25.2 µM in [4]; 12 to 38 µM in assay [5] (HEK293, most of the cellular paradigms / cell types tested, read-out: EC50 inhibition of synuclein phosphorylation, cellular paradigms); roughly 100 µM in [7] (Homo sapiens, HEK293, read-out: EC50, Endogenous Kinase (293)); roughly 100 µM in assay [7] (Homo sapiens, HEK293, read-out: EC50 synuclein phosphorylation, endogenous kinase, previous experiments); greater than 100 µM in assay [7] (Homo sapiens, HEK293, HEK-293, Example 16, Table 21, read-out: EC50 Based on the Percent Inhibition of Synuclein Phosphorylation, Synuclein + Vector). Further, the EC50 at PLK3 (HEK-293, Example 16, Table 21, read-out: EC50 Based on the Percent Inhibition of Synuclein Phosphorylation, Synuclein + PLK3) was greater than 100 µM; at PLK2 [8] (setting [15]), 38 µM. Moreover, at PLK2 [6] (setting [12]), the IC50 came out at 7.7 µM. Moreover, the “rank order of potency, Straight Biochemical” value at PLK2 [6] (rank among 8 inhibitors) is on record as 3. Further, the “rank order of potency, Endogenous Kinase (293)” value in [7] (293 cells) worked out at 4. For the same molecule, at PLK3 (HEK-293), the “EC50 synuclein phosphorylation, over-expressed PLK3” value is “not reached”. Besides, on PLK3 (HEK-293, Table 22), the “Rank Order of Potency Based on Percent Inhibition of Synuclein Phosphorylation, Synuclein + PLK3” value is listed as 3. The “inhibition of synuclein phosphorylation, over-expressed PLK3” value against PLK3 (at concentrations of 30-100 μM) is on record as 30-40%. For the same molecule, the “EC50 synuclein phosphorylation, over-expressed PLK4” value at PLK4 is “not reached”. The “rank order of potency, Over-Expressed PLK2 (293)” value on PLK2 [8] (293 cells, Table 19) was 5. Further, the “Rank Order of Potency Based on Percent Inhibition of Synuclein Phosphorylation, Synuclein + PLK2” value on PLK2 [8] (HEK-293, Table 22) is recorded as 3.

`Brc1c(Br)c(Br)c2[nH]nnc2c1Br` [TBB]: the “effect on synuclein phosphorylation” value in assay [2] (MCC, even at concentrations of 100 μM) is recorded as “no effect”.

Consider `COC[C@H]1OC(=O)c2coc3c2[C@@]1(C)C1=C(C3=O)[C@@H]2CCC(=O)[C@@]2(C)C[C@H]1OC(C)=O` [Wortmannin], for which the EC50 (in assay [2] (setting [10]); in [2] (setting [11]); in assay [3]; in [4]; in assay [7] (setting [14]); on PLK2 [8]) was greater than 100 µM in each case. Moreover, the IC50 at PLK2 [6] (setting [13]) is greater than 100 µM.

On to Over-Expressed PLK1, for which the “Proportion of total synuclein that is phoshorylated at ser-129” value in assay [9] (48 hours post-transfection, with WT-synuclein) stood at 4.1%. Also, in assay [9] (relative to endogenous kinase (2.0%)), the “Fold Change in Percent Synuclein Phosphorylation” value is given as 2.1.

As for Scytonemin, the EC50 in assay [2] (setting [10]) is greater than 100 µM; in assay [2] (setting [11]) it was greater than 100 µM; in assay [3], greater than 100 µM; in assay [4], greater than 100 µM; in assay [7] (293 cells, Table 18, read-out: EC50, Endogenous Kinase (293)) it was greater than 100 µM; at PLK2 [8] (setting [15]) it was greater than 100 µM. Moreover, the “inhibition of 50% of synuclein phosphorylation in cells” value in assay [5] (cell types tested) is “did not inhibit 50%”. In addition, the “inhibition of 50% of synuclein phosphorylation in the in vitro assay” value on PLK2 [6] (PLK2-driven phosphorylation in vitro) is “did not inhibit 50%”. Further, the IC50 on PLK2 [6] (setting [13]) was greater than 100 µM.
